Where two headings read alike, the source gives them in different places.
Experiments:
Assay type in all cases: in vivo, rat
CIS model rats [1] = experiment: Experiment 5: MK-801 in combination with NMDA receptor agonists D-serine or Glycine in CIS model rats; conditions: 3 times; for reduction in saliva amount by MK-801, compared to group B / resulting saliva amount relative to group A (control): 900 mg/kg oral, 1 hour later MK-801 0.1 mg/kg intraperitoneal; for reduction in saliva amount by MK-801, compared to group B: D-serine p<0.05, glycine p<0.01; for resulting saliva amount relative to group A (control): day 9
Description: (§1) Water and feed were limited from 1 hour before the saliva amount measurement.
(§2) As a method for measuring the amount of saliva, a small piece of cotton ball was placed in the mouth of the restrained rat and swabbed for 10 seconds (the saliva was absorbed into the cotton ball). This was repeated three times, and the mass change of the cotton ball was measured. The mass change was measured as the saliva amount collected over a total of 30 seconds.
Experiment 5 was performed on CIS model rats of groups A to D as follows.
• Group A (control): The solvent (5 mL/kg) was orally administered, and then 1 hour later, saline (1 mL/kg) was intraperitoneally administered. This administration was performed for a total of 3 times. • Group B: The solvent (5 mL/kg) was orally administered, and then 1 hour later, MK-801 (0.1 mg/kg) was intraperitoneally administered. This administration was performed for a total of 3 times. • Group C: D-serine (900 mg/kg) was orally administered, and then 1 hour later, MK-801 (0.1 mg/kg) was intraperitoneally administered. This administration was performed for a total of 3 times. • Group D: Glycine (900 mg/kg) was orally administered, and then 1 hour later, MK-801 (0.1 mg/kg) was intraperitoneally administered. This administration was performed for a total of 3 times.
Note that the administration was performed once in the morning and once in the afternoon on day 8 and once in the morning on day 9 for a total of 3 times. The saliva amount was measured 1 hour after the final administration.

CIS model rats [2] = experiment: Experiment 4: acute phase effect of MK-801 and SA4503 on clozapine-induced sialorrhea; conditions: total of 3 times, 1 hour after final administration
Description: as §1, §2
The alleviating effect (acute phase effect) on clozapine-induced sialorrhea by a selective NMDA receptor antagonist MK-801 and a selective sigma-1 receptor agonist SA4503 were investigated. Experiment 4 was performed on CIS model rats of groups A to C as follows.
• Group A (control): Intraperitoneal administration of saline (1 mL/kg) for a total of 3 times • Group B: Intraperitoneal administration of MK-801 (0.1 mg/kg) for a total of 3 times • Group C: Intraperitoneal administration of SA4503 (1 mg/kg) for a total of 3 times
Note that the intraperitoneal administration was performed once in the morning and once in the afternoon on day 8 and once in the morning on day 9 for a total of 3 times. The saliva amount was measured 1 hour after the final administration.

male Wister rats = experiment: Creation of CIS model animals: saliva amount after oral clozapine; conditions: for saliva amount: 7 days
Description: CIS model animals were created with reference to previous studies (Ishikawa S, J. Pharmacol. Exp. Ther., 2020, November; 375(2): 376-384).
As experimental animals, 6 to 8-week-old male Wister rats (made by CLEA Japan, Inc.) were used. The animals were freely ingested and fed on water and normal feed except for the period of time from 1 hour before the saliva amount measurement described below to the measurement.
as §1, §2

CIS model rats [3] = conditions: group C
Description: as §1, §2
The dose and period of administration of the NMDA receptor antagonist dextromethorphan (DXM) were investigated using the above-described CIS model animals (CIS model rats). Experiment 1 was performed on CIS model rats of groups A to C as follows.
The saliva amount was measured before drug administration on day 14 (24 hours after drug administration up to day 13).

CIS model rats [4] = conditions: for change in saliva amount from day 7 to day 9 (1 hour after administration): total of 3 times
Description: as §1, §2
The dose of dextromethorphan (DXM) was changed to examine the dose-dependency of clozapine-induced sialorrhea suppression effect.
The following studies were performed on the dose-dependency of the acute phase effect of DXM using the above-described CIS model animals (CIS model rats).
Note that swabs were performed on days 5 and 6 to accustom the model animals with the saliva measurement.
• Group A: Intraperitoneal administration of saline (1 mL/kg) for a total of 3 times • Group B: Intraperitoneal administration of saline (1 mL/kg) for a total of 3 times • Group C: Intraperitoneal administration of DXM (3 mg/kg) for a total of 3 times • Group D: Intraperitoneal administration of DXM (30 mg/kg) for a total of 3 times • Group E: Intraperitoneal administration of DXM (60 mg/kg) for a total of 3 times
The agent of the above dose was administered once in the morning and once in the afternoon on day 8 and once in the morning on day 9 for a total of 3 times. The saliva amount was measured 1 hour after the final administration.

CIS model rats [5] = conditions: group B, DXM 30 mg/kg/day intraperitoneal on days 8 and 9 after clozapine 100 mg/kg/day days 1-7; p<0.01
Description: as §1, §2
In the above Experiment 1, the saliva amount was measured 24 hours after DXM administration. […] The following studies were performed on the acute phase effect of dextromethorphan (DXM) using the above-described CIS model animals (CIS model rats).
Swabs were conducted on a daily basis to accustom the model animals with saliva measurements.
• Group A: Intraperitoneal administration of saline (1 mL/kg) once per day • Group B: Intraperitoneal administration of DXM (30 mg/kg/day) once per day
On Day 9, the saliva amount was measured 1 hour after DXM administration.

NCC(=O)O [glycine, Glycine]
reduction in saliva amount by MK-801, compared to group B (CIS model rats [1]): significantly antagonized
resulting saliva amount relative to group A (control) (CIS model rats [1]): same level as that in group A

C[C@]12N[C@H](Cc3ccccc31)c1ccccc12 [MK-801, dizocilpine (MK-801)]
saliva amount on day 9 compared to group A (control) (CIS model rats [1]; group B, solvent oral then MK-801 0.1 mg/kg intraperitoneal, p<0.05): significantly reduced
saliva amount on day 9 compared to group A (control) (CIS model rats [2]; group B, MK-801 0.1 mg/kg intraperitoneal, p<0.01): significantly reduced

CN1CCN(C2=Nc3cc(Cl)ccc3Nc3ccccc32)CC1 [clozapine]
saliva amount (male Wister rats; 25 mg/kg/day orally once per day): did not increase
saliva amount (male Wister rats; 50 mg/kg/day orally once per day, from day 3 of administration): increased significantly
saliva amount (male Wister rats; 100 mg/kg/day orally once per day, from day 3 of administration): increased significantly
amount of saliva secretion (male Wister rats; single oral dose of 25, 50 or 100 mg/kg/day, measured 4 times per day, every 6 hours from 1 hour after administration): no increase in the amount of saliva secretion was observed

N[C@H](CO)C(=O)O [D-serine]
reduction in saliva amount by MK-801, compared to group B (CIS model rats [1]): significantly antagonized
resulting saliva amount relative to group A (control) (CIS model rats [1]): same level as that in group A

COc1ccc(CCN2CCN(CCCc3ccccc3)CC2)cc1OC [SA4503]
saliva amount on day 9 compared to group A (control) (CIS model rats [2]; group C, SA4503 1 mg/kg intraperitoneal, p<0.05): significantly reduced

COc1ccc2c(c1)[C@]13CCCC[C@@H]1[C@H](C2)N(C)CC3 [dextromethorphan]
change in saliva amount on day 14 based on the saliva amount on day 7 (CIS model rats [3]; DXM 30 mg/kg/day intraperitoneal + clozapine, compared to groups A and B, p<0.01): significantly reduced
saliva amount on day 14 (CIS model rats [3]; DXM 30 mg/kg/day intraperitoneal on days 8 to 13 in addition to clozapine 100 mg/kg/day, 24 hours after administration): reduction of saliva amount was observed
change in saliva amount from day 7 to day 9, group E compared to group C (CIS model rats [4]; DXM 60 mg/kg compared to DXM 3 mg/kg, intraperitoneal, 3 times, p<0.01): significantly reduced
dose-dependency of clozapine-induced sialorrhea suppression effect (CIS model rats [4]; DXM 3, 30, 60 mg/kg intraperitoneal): dose-dependent
change in saliva amount from day 7 to day 9 (1 hour after administration) (CIS model rats [4]; group D, DXM 30 mg/kg intraperitoneal, p<0.05): significantly reduced
change in saliva amount from day 7 to day 9 (1 hour after administration) (CIS model rats [4]; group E, DXM 60 mg/kg intraperitoneal, p<0.001): significantly reduced
saliva amount at 1 hour after administration on day 9 (CIS model rats [5]): significantly reduced
